Series [1] addresses T1, Brd4 bromodomain 1 (Homo sapiens, UniProt O60885).
T1 construct: made in house; host or cells: E. coli BL21(DE3)
As to the kind of experiment: Inhibition of binding of tetra-acetylated histone H4 and Brd4 bromodomain 1 by TR-FRET. The following applies: His-tagged bromodomain 200 nM, biotinylated tetra-acetylated histone H4 peptide 25-50 nM, 2 hours at room temperature.

The subject of series [2] is c-myc. As to the kind of experiment: Inhibition of c-myc expression (mRNA, real-time PCR) in MV4-11 cells. Type of series: cell-based, Human. The settings on record: 3 hours at 37° C., duplex with cyclophilin. The arrangement: key: Active: Compounds with an IC50 value less than 30 μM were deemed to be active. As for the experimental part: MV4-11 cells (2.5×10^4 cells) were plated in 96 well U-bottom plates with test compound or DMSO (0.1%), and incubated for 3 hours at 37° C. Cells were then harvested by centrifugation, lysed, and mRNA was isolated using the mRNA catcher plus kit (Invitrogen). Reverse transcription of the mRNA and duplex amplification of the c-myc and cyclophilin cDNAs were performed using the RNA Ultrasense kit (Invitrogen) and a ViiA7 real-time PCR machine (Applied Biosystems). IC50 values were determined from a dose response curve.

In series [3] the test system is Human AML MV-4-11 cells. Nature of the series: Inhibition of cell proliferation in human AML MV-4-11 cells. The arrangement: key: Active: Compounds with an IC50 value less than 30 uM were deemed to be active. The settings on record: 72 hours, CellTiter Aqueous One Solution, 30 uM to 0.2 μM. The series is classed as cell-based. As to the method:
MV4-11 cells: 96-well plates were seeded with 5×10^4 cells per well of exponentially growing human AML MV-4-11 (CRL-9591) cells and immediately treated with two-fold dilutions of test compounds, ranging from 30 uM to 0.2 μM. Triplicate wells were used for each concentration, as well as a media only and three DMSO control wells. The cells and compounds were incubated at 37° C., 5% CO2 for 72 hours before adding 20 μL of the CellTiter Aqueous One Solution (Promega) to each well and incubating at 37° C., 5% CO2 for an additional 3-4 hours. The absorbance was taken at 490 nm in a spectrophotometer and the percentage of proliferation relative to DMSO-treated cells was calculated after correction from the blank well. IC50 were calculated using the GraphPad Prism software.

With `COc1cc(OC)c2c(=O)n(C)c(-c3cc(C)c(O)c(C)c3)cc2c1` [Example 4, 3-(4-hydroxy-3,5-dimethylphenyl)-6,8-dimethoxy-2-methylisoquinolin-1(2H)-one], the melting point was in the range of 253 to 254 °C. Besides, the “FRET activity (<50 uM)” value in series [1] is “Active”. The “c-myc activity (<30 uM)” value in series [2] is “Active”. Besides, the “cell proliferation activity (<30 uM)” value in series [3] is “Active”.

As for `COc1cc(OC)c2c(=O)[nH]c(-c3cc(C)c(O)c(C)c3)nc2c1` [Example 10, 2-(4-hydroxy-3,5-dimethylphenyl)-5,7-dimethoxyquinazolin-4(3H)-one], in series [1], the “FRET activity (<50 uM)” value is given as “Active”. In addition, the “c-myc activity (<30 uM)” value in series [2] is “Active”. The “cell proliferation activity (<30 uM)” value in series [3] is on record as “Active”.

As to `COc1cc(OC)c2c(=O)[nH]c(-c3cc(C)c(OCCO)c(C)c3)nc2c1` [Example 16, 2-(4-(2-hydroxyethoxy)-3,5-dimethylphenyl)-5,7-dimethoxyquinazolin-4(3H)-one], in series [1], the “FRET activity (<50 uM)” value was “Active”. For the same compound, in series [2], the “c-myc activity (<30 uM)” value is listed as “Active”.

Consider `COc1cc(OC)c2c(=O)[nH]c(-c3cc(C)c(OCCN4CCOCC4)c(C)c3)nc2c1` [Example 17, 2-(3,5-dimethyl-4-(2-morpholinoethoxy)phenyl)-5,7-dimethoxyquinazolin-4(3H)-one], for which, in series [1], the “FRET activity (<50 uM)” value is given as “Active”. Also, in series [3], the “cell proliferation activity (<30 uM)” value is listed as “Active”.

With `COc1cc(OC)c2c(=O)[nH]c(-c3ccc(N4CCN(C)CC4)cc3)nc2c1` [Example 38, 5,7-dimethoxy-2-(4-(4-methylpiperazin-1-yl)phenyl)quinazolin-4(3H)-one], the “FRET activity (<50 uM)” value in series [1] was “Active”. In addition, in series [2], the “c-myc activity (<30 uM)” value is “Active”. For the same compound, the “cell proliferation activity (<30 uM)” value in series [3] was “Active”.

For the compound `COc1cc2cc(-c3cc(C)c(O)c(C)c3)[nH]c(=O)c2c(OC)c1CN1CCOCC1` [Example 46, 3-(4-hydroxy-3,5-dimethylphenyl)-6,8-dimethoxy-7-(morpholinomethyl)isoquinolin-1(2H)-one], the melting point is 158 to 161 °C. Moreover, the “FRET activity (<50 uM)” value in series [1] is “Active”. Further, in series [2], the “c-myc activity (<30 uM)” value is reported as “Active”. Moreover, the “cell proliferation activity (<30 uM)” value in series [3] is “Active”.

As for `Cc1cc(-c2nc3ccc(CN4CCOCC4)cc3c(=O)[nH]2)cc(C)c1O` [Example 57, 2-(4-hydroxy-3,5-dimethylphenyl)-6-(morpholinomethyl)quinazolin-4(3H)-one], the “FRET activity (<50 uM)” value in series [1] was “Active”. Besides, the “c-myc activity (<30 uM)” value in series [2] is recorded as “Active”. Besides, the “cell proliferation activity (<30 uM)” value in series [3] is on record as “Active”.

Regarding `COc1cc(OC)c2c(=O)[nH]c(-c3cc(C)c(OC)c(C)c3)cc2n1` [Example 58, 2,4-dimethoxy-7-(4-methoxy-3,5-dimethylphenyl)-1,6-naphthyridin-5(6H)-one], the melting point was 262 to 263 °C (dec.). Besides, the “FRET activity (<50 uM)” value in series [1] is recorded as “Active”.

In the case of `COc1cc(OC)c2c(=O)[nH]c(-c3cc(C)c(OCC(=O)O)c(C)c3)nc2c1` [Example 59, 2-(4-(5,7-dimethoxy-4-oxo-3,4-dihydroquinazolin-2-yl)-2,6-dimethylphenoxy)acetic acid], the melting point fell in the range of 270 to 272 °C. Also, the “FRET activity (<50 uM)” value in series [1] is “Active”. Further, in series [2], the “c-myc activity (<30 uM)” value was “Inactive”.

For the compound `COc1cc(OC)c2c(=O)[nH]c(-c3ccc(NC(=O)CO)cc3)nc2c1` [Example 60, N-(4-(5,7-dimethoxy-4-oxo-3,4-dihydroquinazolin-2-yl)phenyl)-2-hydroxyacetamide], the melting point is 318 to 319 °C. Further, in series [1], the “FRET activity (<50 uM)” value is on record as “Inactive”.

As to `COc1cc(OC)c2c(=O)[nH]c(-c3cc(C)c(O)c(C)c3)nc2n1` [Example 63, 2-(4-hydroxy-3,5-dimethylphenyl)-5,7-dimethoxypyrido[2,3-d]pyrimidin-4(3H)-one], the melting point was 297 to 299 °C. For the same compound, the “FRET activity (<50 uM)” value in series [1] was “Active”.

In the case of `COc1cc(OC)c2c(=O)[nH]c(-c3ccc(OC)c(CN4CCOCC4)c3)nc2c1` [Example 64, 5,7-dimethoxy-2-(4-methoxy-3-(morpholinomethyl)phenyl)quinazolin-4(3H)-one], the melting point lay within 282.7 to 284.5 °C. The “FRET activity (<50 uM)” value in series [1] is given as “Active”.

`COc1cc(OC)c2c(=O)[nH]c(-c3cc(C)c(OCCO)c(C)c3)nc2n1` [Example 65, 2-(4-(2-hydroxyethoxy)-3,5-dimethylphenyl)-5,7-dimethoxypyrido[2,3-d]pyrimidin-4(3H)-one] had a melting point of 255 to 256 °C. In addition, the “FRET activity (<50 uM)” value in series [1] is listed as “Active”.

For `COc1cc(OC)c2c(=O)nc(-c3cc(C)c(O)c(C)c3)n(C)c2c1` [Example 66, 2-(4-hydroxy-3,5-dimethylphenyl)-5,7-dimethoxy-1-methylquinazolin-4(1H)-one], the melting point fell in the range of 188.5 to 189.1 °C. Moreover, in series [1], the “FRET activity (<50 uM)” value is listed as “Active”.

Consider `COc1cc(OC)c2c(=O)[nH]c(-c3cc(C)c(OCCN4CCCC4)c(C)c3)nc2c1` [Example 67, 2-(3,5-dimethyl-4-(2-(pyrrolidin-1-yl)ethoxy)phenyl)-5,7-dimethoxyquinazolin-4(3H)-one], for which the “c-myc activity (<30 uM)” value in series [2] is on record as “Active”. In series [3], the “cell proliferation activity (<30 uM)” value was “Active”.

Take `CC(=O)Nc1ccc2nc(-c3cc(C)c(OCCO)c(C)c3)[nH]c(=O)c2c1` [Example 68, N-(2-(4-(2-hydroxyethoxy)-3,5-dimethylphenyl)-4-oxo-3,4-dihydroquinazolin-6-yl)acetamide]: the melting point was more than 300 °C. Moreover, in series [1], the “FRET activity (<50 uM)” value is recorded as “Inactive”.

The compound `Cc1cc(-c2cc3nc(OC(C)C)cc(OC(C)C)c3c(=O)[nH]2)cc(C)c1O` [Example 69, 7-(4-hydroxy-3,5-dimethylphenyl)-2,4-diisopropoxy-1,6-naphthyridin-5(6H)-one] registered a melting point of 206 to 208 °C. Moreover, the “FRET activity (<50 uM)” value in series [1] was “Active”.

The compound `COc1cc(OC)c2c(=O)[nH]c(-c3ccc(O)c(CCO)c3)nc2c1` [Example 70, 2-(4-hydroxy-3-(2-hydroxyethyl)phenyl)-5,7-dimethoxyquinazolin-4(3H)-one] displayed a melting point of 249 to 250.3 °C. Besides, the “FRET activity (<50 uM)” value in series [1] is “Active”.

The compound `Cc1cc(C)c2c(=O)[nH]c(-c3cc(C)c(OCCO)c(C)c3)nc2c1` [Example 71, 2-(4-(2-hydroxyethoxy)-3,5-dimethylphenyl)-5,7-dimethylquinazolin-4(3H)-one] showed a melting point of 259.6 to 261.2 °C. For the same compound, in series [1], the “FRET activity (<50 uM)” value is recorded as “Inactive”.

The compound `COc1cc(OC)c2c(=O)[nH]c(-c3ccc(N(CCO)CCO)cc3)nc2n1` [Example 72, 2-(4-(bis(2-hydroxyethyl)amino)phenyl)-5,7-dimethoxy-pyrido[2,3-d]pyrimidin-4(3H)one] came in with a melting point of 277 to 279 °C. For the same compound, the “FRET activity (<50 uM)” value in series [1] is given as “Active”.

Consider `COCCOc1c(C)cc(-c2nc3cc(OC)cc(OC)c3c(=O)[nH]2)cc1C` [Example 73, 5,7-dimethoxy-2-(4-(2-methoxyethoxy)-3,5-dimethylphenyl)quinazolin-4(3H)-one], for which the melting point lay in the range of 201 to 202 °C. Besides, the “FRET activity (<50 uM)” value in series [1] is reported as “Active”.

For `Cc1cc(-c2nc3cc(Cl)cc(Cl)c3c(=O)[nH]2)cc(C)c1OCCO` [Example 74, 5,7-dichloro-2-(4-(2-hydroxyethoxy)-3,5-dimethylphenyl)quinazolin-4(3H)-one], the melting point was in the range of 260.8 to 262.6 °C. In addition, in series [1], the “FRET activity (<50 uM)” value is “Active”.

On to `COc1cc(OC)c2c(=O)[nH]c(-c3cc(C)c(OCCNS(C)(=O)=O)c(C)c3)nc2c1` [Example 96, N-(2-(4-(5,7-dimethoxy-4-oxo-3,4-dihydroquinazolin-2-yl)-2,6-dimethylphenoxy)ethyl)methanesulfonamide], for which, in series [1], the “FRET activity (<50 uM)” value is “Active”. The “c-myc activity (<30 uM)” value in series [2] is given as “Inactive”. In series [3], the “cell proliferation activity (<30 uM)” value is given as “Active”.

`COc1cc(OC)c2c(=O)[nH]c(-c3ccc(OCC(=O)O)c(OC)c3)nc2c1` [Example 97, 2-(4-(5,7-dimethoxy-4-oxo-3,4-dihydroquinazolin-2-yl)-2-methoxyphenoxy)acetic acid] had a melting point of 275 to 277 °C. For the same compound, in series [1], the “FRET activity (<50 uM)” value is reported as “Active”.

Turning to `COc1cc(O)c2c(=O)[nH]c(-c3cc(C)c(O)c(C)c3)nc2c1` [Example 98, 5-hydroxy-2-(4-hydroxy-3,5-dimethylphenyl)-7-methoxyquinazolin-4(3H)-one], the melting point lay in the range of 291.3 to 293 °C. Besides, the “FRET activity (<50 uM)” value in series [1] is reported as “Inactive”.

These data come from patent US20130281397A1, “TREATMENT OF DISEASES BY EPIGENETIC REGULATION” (RVX Therapeutics Inc., priority 2012, published 2013).
